Source: US20260102501A1, “ANTI-CANCER NUCLEAR HORMONE RECEPTOR-TARGETING COMPOUNDS” (Nuvation Bio Inc., priority 2022, published 2026)
Substitutions are numbered along the chain they refer to. Counter-ions that a name gives are not always drawn. Like-named read-outs stand apart in the source and are kept apart here.

Legend:
[1] = system: LNCap cells; experiment: Cell viability assay (CellTiterGlo); format: cell-based; settings: Homo sapiens, 144 h
[2] = system: 22Rv1 cells; experiment: Cell viability assay (CellTiterGlo); settings: Homo sapiens, 22Rv1, 144 h, read-out: 22RV1 (IC50, nM)
Experimental: Cell viability assay: LNCap, 22Rv1, MCF7, MDAMB361, T47D, and IEC6 cells were seeded at a density of 500-2000 cells/well in 96 well plates, and a ‘T0’ (timepoint 0) was included along with the assay plate. The plates were then incubated at 37° C., 5% CO2 in a cell culture incubator overnight. On the next day, the ‘T0’ plate was assayed using CellTiterGlo (Promega, Inc) according to the manufacturer's instructions. The appropriate compounds were diluted in DMSO and added to the assay plate (final DMSO concentration of 0.1-0.2%) on the next day. The assay plates were incubated for 6 days at 37° C., 5% CO2. After the incubation period, the plates were assayed using CellTiterGlo (Promega, Inc) according to the manufacturer's instructions and luminescence was read on the En Vision plate reader. […] GraphPadPrism was used to analyze the data and determine GI50/IC50 values.

[3] = target: T1, AR (cytosol from LnCaP cells) (Homo sapiens, UniProt P10275, T878A); experiment: AR binding assay (3H-R1881 displacement)
T1 sequence (P10275 1-920 T878A): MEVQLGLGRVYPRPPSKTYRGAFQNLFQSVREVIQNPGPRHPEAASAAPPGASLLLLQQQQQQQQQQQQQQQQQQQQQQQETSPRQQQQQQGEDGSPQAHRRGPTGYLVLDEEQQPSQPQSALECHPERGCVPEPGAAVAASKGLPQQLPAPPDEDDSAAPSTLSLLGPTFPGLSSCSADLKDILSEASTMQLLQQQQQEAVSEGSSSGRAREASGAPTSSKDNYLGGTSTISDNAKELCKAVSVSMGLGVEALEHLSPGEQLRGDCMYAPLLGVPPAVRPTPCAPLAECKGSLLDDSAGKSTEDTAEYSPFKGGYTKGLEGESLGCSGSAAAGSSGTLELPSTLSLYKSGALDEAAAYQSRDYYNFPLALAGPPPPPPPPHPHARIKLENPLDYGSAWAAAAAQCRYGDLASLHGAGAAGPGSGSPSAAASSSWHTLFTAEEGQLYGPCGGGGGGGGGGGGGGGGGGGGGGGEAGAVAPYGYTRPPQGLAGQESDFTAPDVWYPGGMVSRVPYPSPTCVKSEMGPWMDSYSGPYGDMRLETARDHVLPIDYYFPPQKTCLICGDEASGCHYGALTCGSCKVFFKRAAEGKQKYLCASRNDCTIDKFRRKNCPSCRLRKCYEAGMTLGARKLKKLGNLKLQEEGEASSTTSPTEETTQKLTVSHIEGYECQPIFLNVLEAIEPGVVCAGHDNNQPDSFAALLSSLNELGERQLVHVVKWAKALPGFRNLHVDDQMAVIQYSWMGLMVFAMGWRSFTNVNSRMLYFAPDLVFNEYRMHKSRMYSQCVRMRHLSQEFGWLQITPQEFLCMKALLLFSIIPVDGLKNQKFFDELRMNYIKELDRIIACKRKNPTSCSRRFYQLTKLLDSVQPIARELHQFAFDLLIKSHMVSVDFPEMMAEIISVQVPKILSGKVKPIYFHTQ
Experimental: The plate was then centrifuged at 3000 rpm for 30 minutes at 4° C.

[4] = target: T2, full-length androgen receptor (HEK293 cells stably expressing) (Homo sapiens, UniProt P10275); experiment: AR antagonism assay (luciferase reporter)
T2 sequence (P10275 1-920): T1 sequence (P10275 1-920 T878A) with A878T
Experimental: AR antagonism assay: To evaluate AR antagonist activity, test compound was added to the assay plate (top dose 10 μM, 3 fold serial dilution, 10 point dose response). HEK293 cells stably expressing the full-length androgen receptor were seeded at a density of 20000 cells/well in the assay plate. The assay plate was then incubated at room temperature for 10 minutes and at 37° C. 5% CO2 for 20 minutes. Testosterone was added to the assay plate at 1 nM final concentration and the assay plate incubated at 37° C., 5% CO2 for 20 h. […] Steady-glo was added to the assay plate and mixed at room temperature for 20 minutes on an orbital shaker, before reading out on the En Vision plate reader.

[5] = target: T3, ligand binding domain of the glucocorticoid receptor (HEK293 cells stably expressing) (Homo sapiens, UniProt P04150); experiment: GR antagonism assay (luciferase reporter)
T3 sequence (P04150 524-758 limits assumed): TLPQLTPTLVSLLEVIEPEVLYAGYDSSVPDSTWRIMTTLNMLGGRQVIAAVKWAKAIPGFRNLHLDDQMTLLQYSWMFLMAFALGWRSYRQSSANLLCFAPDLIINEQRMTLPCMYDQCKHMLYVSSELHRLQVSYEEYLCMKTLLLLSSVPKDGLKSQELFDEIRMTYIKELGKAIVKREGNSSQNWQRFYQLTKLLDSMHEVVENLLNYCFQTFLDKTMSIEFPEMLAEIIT

[6] = target: T4, GR (cytosol from IM-9 cells) (Homo sapiens, UniProt P04150); experiment: GR binding assay (3H-Dexamethasone displacement)
T4 sequence (P04150 1-777): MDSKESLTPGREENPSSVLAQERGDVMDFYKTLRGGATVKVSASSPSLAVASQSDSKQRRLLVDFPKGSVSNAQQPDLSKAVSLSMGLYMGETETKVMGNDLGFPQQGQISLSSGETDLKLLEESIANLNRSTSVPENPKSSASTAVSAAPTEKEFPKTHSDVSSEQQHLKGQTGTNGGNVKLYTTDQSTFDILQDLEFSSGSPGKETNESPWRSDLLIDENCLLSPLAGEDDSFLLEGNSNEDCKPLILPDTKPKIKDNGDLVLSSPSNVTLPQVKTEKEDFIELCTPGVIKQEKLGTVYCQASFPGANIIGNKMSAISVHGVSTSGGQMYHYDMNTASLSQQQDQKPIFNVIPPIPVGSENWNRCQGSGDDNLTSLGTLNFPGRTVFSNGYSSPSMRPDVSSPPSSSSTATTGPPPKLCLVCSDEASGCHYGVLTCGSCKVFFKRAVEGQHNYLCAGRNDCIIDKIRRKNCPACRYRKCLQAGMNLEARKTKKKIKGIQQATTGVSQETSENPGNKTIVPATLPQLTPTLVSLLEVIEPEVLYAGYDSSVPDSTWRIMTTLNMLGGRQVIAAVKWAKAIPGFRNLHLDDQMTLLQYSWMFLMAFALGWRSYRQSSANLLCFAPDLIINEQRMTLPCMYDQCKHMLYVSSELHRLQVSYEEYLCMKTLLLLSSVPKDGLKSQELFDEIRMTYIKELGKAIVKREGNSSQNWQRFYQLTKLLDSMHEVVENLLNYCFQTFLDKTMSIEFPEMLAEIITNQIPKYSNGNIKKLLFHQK

[7] = system: IEC6 cells; experiment: Cell viability assay (CellTiterGlo); settings: Rattus norvegicus, IEC-6, 144 h, read-out: IEC-6 (IC50, nM)
[8] = 6 days incubation, CellTiterGlo, read-out: LNCap (IC50)

Row | Structure (SMILES) | IC50 ([1]; read-out: LNCap (IC50, nM)) [nM] | IC50 [2] [nM] | IC50 [3] [nM] | IC50 [4] [nM] | IC50 [5] [nM] | IC50 [6] [nM] | IC50 [1, 8] [nM] | IC50 [7] [nM]
1 | CC[C@@]1(O)C(=O)OCc2c1cc1n(c2=O)Cc2cc3c(CN(C)C)c(OC(=O)N4CCN(CCCCCCN(C)C5CCN(c6ccc(C(=O)N[C@H]7CC[C@H](Oc8ccc(C#N)c(Cl)c8C)CC7)nn6)CC5)CC4)ccc3nc2-1 [Compound No. 22, (S)-10-((Dimethylamino)methyl)-4-ethyl-4-hydroxy-3,14-dioxo-3,4,12,14-tetrahydro-1H-pyrano[3′,4′:6,7]indolizino[1,2-b]quinolin-9-yl 4-(6-((1-(6-(((1r,4r)-4-(3-chloro-4-cyano-2-methylphenoxy)-cyclohexyl)carbamoyl)pyridazin-3-yl)piperidin-4-yl)(methyl)amino)hexyl)piperazine-1-carboxylate Formate] | 10 to 100 | 101 to 1000 | < 10 | 101 to 1000 | 101 to 1000 | 101 to 1000 | – | –
2 | CC[C@@]1(OC(=O)N2CCN(CC3CCN(c4ccc(C(=O)N[C@H]5CC[C@H](Oc6ccc(C#N)c(Cl)c6C)CC5)nn4)CC3)CC2)C(=O)OCc2c1cc1n(c2=O)Cc2cc3cc(OC)ccc3nc2-1 [Compound 23, (S)-4-Ethyl-9-methoxy-3,14-dioxo-3,4,12,14-tetrahydro-1H-pyrano[3′,4′:6,7]indolizino[1,2-b]quinolin-4-yl 4-((1-(6-(((1r,4r)-4-(3-chloro-4-cyano-2-methylphenoxy)cyclohexyl)carbamoyl)pyridazin-3-yl)piperidin-4-yl)methyl)piperazine-1-carboxylate] | – | 101 to 1000 | 10 to 100 | > 1000 | > 1000 | > 1000 | 10 to 100 | –
3 | CC[C@@]1(O)C(=O)OCc2c1cc1n(c2=O)Cc2cc3c(CN4CCN(C(=O)C5CCN(c6ccc(C(=O)N[C@H]7CC[C@H](Oc8ccc(C#N)c(Cl)c8C)CC7)nn6)CC5)CC4)c(O)ccc3nc2-1 [Compound 25, N-((1r,4r)-4-(3-Chloro-4-cyano-2-methylphenoxy)cyclohexyl)-6-(4-(4-(((S)-4-ethyl-4,9-dihydroxy-3,14-dioxo-3,4,12,14-tetrahydro-1H-pyrano[3′,4′:6,7]indolizino[1,2-b]quinolin-10-yl)methyl)piperazine-1-carbonyl)piperidin-1-yl)pyridazine-3-carboxamide] | – | 10 to 100 | < 10 | > 1000 | > 1000 | > 1000 | < 10 | –
4 | CC[C@@]1(O)C(=O)OCc2c1cc1n(c2=O)Cc2cc3c(CN4CCN(CC5CCN(c6ccc(C(=O)N[C@H]7CC[C@H](Oc8ccc(C#N)c(Cl)c8C)CC7)nn6)CC5)CC4)c(O)ccc3nc2-1 [Compound 26, N-((1r,4r)-4-(3-Chloro-4-cyano-2-methylphenoxy)cyclohexyl)-6-(4-((4-(((S)-4-ethyl-4,9-dihydroxy-3,14-dioxo-3,4,12,14-tetrahydro-1H-pyrano[3′,4′:6,7]indolizino[1,2-b]quinolin-10-yl)methyl)piperazin-1-yl)methyl)piperidin-1-yl)pyridazine-3-carboxamide Formate] | – | 10 to 100 | < 10 | > 1000 | > 1000 | > 1000 | < 10 | –
5 | CC[C@@]1(O)C(=O)OCc2c1cc1n(c2=O)Cc2cc3c(CN4CCN(CCCCCCC5CCN(c6ccc(C(=O)N[C@H]7CC[C@H](Oc8ccc(C#N)c(Cl)c8C)CC7)nn6)CC5)CC4)c(O)ccc3nc2-1 [Compound No. 52] | – | 10 to 100 | 10 to 100 | 10 to 100 | – | – | 10 to 100 | 101 to 1000
6 | CC[C@@]1(O)C(=O)OCc2c1cc1n(c2=O)Cc2cc3c(CN(C)C)c(OC(=O)N4C[C@H](C)N(CC5CCN(c6ccc(C(=O)N[C@H]7CC[C@H](Oc8ccc(C#N)c(Cl)c8C)CC7)nn6)CC5)C[C@H]4C)ccc3nc2-1 [Compound 32, (S)-10-((Dimethylamino)methyl)-4-ethyl-4-hydroxy-3,14-dioxo-3,4,12,14-tetrahydro-1H-pyrano[3′,4′:6,7]indolizino[1,2-b]quinolin-9-yl (2R,5S)-4-((1-(6-(((1r,4r)-4-(3-Chloro-4-cyano-2-methylphenoxy)cyclohexyl)carbamoyl)pyridazin-3-yl)piperidin-4-yl)methyl)-2,5-dimethylpiperazine-1-carboxylate Formate] | 101 to 1000 | 101 to 1000 | 101 to 1000 | 101 to 1000 | – | – | – | > 1000
7 | CC[C@@]1(O)C(=O)OCc2c1cc1n(c2=O)Cc2c-1nc1cc(F)c(C)c3c1c2[C@@H](NC(=O)CN1CCN(C(=O)CCCCCC2CCN(c4ccc(C(=O)N[C@H]5CC[C@H](N(C)c6ccc(C#N)c(Cl)c6)CC5)nn4)CC2)CC1)CC3 [Compound No. 46] | – | 101 to 1000 | 101 to 1000 | > 1000 | – | – | 101 to 1000 | > 1000
